In assay [1] the target is α-amylase from Pyrococcus woesei (partially purified) (Pyrococcus woesei, UniProt Q7LYT7). Description: biochemical. The following applies: 40 min, pH 5.5, read-out: enzyme activity measured in percent. The method, then: The influence of metal cations and EDTA on the activity of α-amylase from P. woesei was performed with enzyme which was partially purified by gelfiltration on a Supsrose 12 column (Pharmacia, Sweden), see Table 2. The fractions containing α-amylase were collected and concentrated 4-fold. 25 μl of enzyme (400 U/l) were added to 100 μl of sodium acetate buffer (50 mM, pH 5.5) containing 1% (w/v) starch. Metal cations, which were dissolved in sodium acetate buffer (100 mM, pH 5.5), were added in various concentrations. Incubation was conducted in a glycerin bath (100° C.) for 40 min. The reducing sugars were finally detected as described by Bergmeyer and Grassi (supra). The values represent the enzyme activity measured in percent.
Sequence of α-amylase from Pyrococcus woesei (partially purified) (Q7LYT7 26-460): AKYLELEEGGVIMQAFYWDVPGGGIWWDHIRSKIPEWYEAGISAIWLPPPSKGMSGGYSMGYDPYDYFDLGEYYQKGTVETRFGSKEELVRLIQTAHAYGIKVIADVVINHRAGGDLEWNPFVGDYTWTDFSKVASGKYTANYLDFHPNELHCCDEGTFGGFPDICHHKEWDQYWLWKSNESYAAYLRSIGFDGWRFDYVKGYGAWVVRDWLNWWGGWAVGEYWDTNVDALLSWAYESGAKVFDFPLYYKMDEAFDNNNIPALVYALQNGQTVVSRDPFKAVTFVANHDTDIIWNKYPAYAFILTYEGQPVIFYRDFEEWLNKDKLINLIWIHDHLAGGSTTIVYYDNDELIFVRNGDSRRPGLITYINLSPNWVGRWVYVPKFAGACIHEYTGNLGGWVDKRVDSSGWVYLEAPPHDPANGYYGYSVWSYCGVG

For assay [2], the target named is extracellular α-amylase from Pyrococcus furiosus (partially purified) (Pyrococcus furiosus, UniProt Q8U3I9). The following applies: EDTA concentration not given. The method, then: In order to conduct physiochemical investigations the extracellular amylase was partially purified by gelfiltration. All experiments were performed in the absence of metal ions and under aerobic conditions.
Sequence of extracellular α-amylase from Pyrococcus furiosus (partially purified) (Q8U3I9 39-473): as the sequence (Q7LYT7 26-460) above

On to `O=C(O)CN(CCN(CC(=O)O)CC(=O)O)CC(=O)O` [EDTA], for which, in assay [1], the remaining activity at 1000 µM came out at 95%, the remaining activity at 2000 µM amounted to 85% and the remaining activity at 5000 µM is 60%. Moreover, the “influence on amylase activity” value in assay [2] is listed as “did not have any influence”.

The record behind these values is patent US5370997A, “Hyperthermostable alpha-amylase” (Novo Nordisk A/S, priority 1989, dated 1994).
